The source of these data is patent US11420995B2, “Anti-infective and anti-inflammatory compounds” (Synovo GmbH, priority 2017, dated 2022).

Molecules are shown by their SMILES.

Experiment [1] relates to Staphylococcus aureus Newman. The experiment in a line: Staphylococcus infection in mice (body weight, CFU recovered from kidney). Type of experiment: in vivo. The conditions noted are these: for Ability of mice to clear an infection by Staphylococcus aureus Newman; bacteria quantified as CFU recovered from a standard sample of kidney: FIG. 6.
Experiment [2] deals with mice treated with dextran sulfate (colitis). The experiment in a line: Dextran sulfate colitis in mice (inflammatory bowel disease model). The format is in vivo, mouse (C57 BLK6 or BALBc). The following applies: N=8; for Body weight and clinical score of BALBc mice at day 9 after commencing 2.5% DSS in water: FIG. 18. From the text: The potential efficacy of a Compound for Inflammatory bowel disease may be modeled as follows. C57 BLK6 or BALBc mice are provided with drinking water containing 2.5% or 2.8% dextran sulfate. Animals are weighed and observed for signs of intestinal disturbance daily. Signs include diarrhea or occult blood. Compound is formulated by mixing with a solution of 0.1 up to 1% citric acid depending on concentration. Compound is provided by oral gavage daily.

In experiment [3] the test system is Salmonella typhimurium phagocytosed by J774 murine cells. Briefly: Intracellular killing of S. Typhimurium by mouse macrophage cellline J 774 A.1 (surviving CFU). The format is cell-based. The following applies: FIG. 4; compared with azithromycin. The method, then: Substances may act directly on bacteria, or they may act to promote the killing of the bacteria by phagocytes. To measure this effect, cultures murine macrophages are incubated with a test bacteria and the number of bacteria surviving are counted in terms of the viable colony forming units (CFU). The method for determining the rate of phagocytosis is as follows:
Intracellular killing of S. Typhimurium by mouse macrophage cellline J 774 A.1 • seed a monolayer of cells in 200 μl Media into the wells of a 96 well plates • incubate O/N 37° C. • remove medium and add fresh medium • add Bacteria (Salmonella typhimurium) e.g. 5 μl of 1:100 diluted O/N culture (MOI=10) (=10^8 cfu/ml) • centrifuge 10 min 800 g (2000 rpm) • incubate 20-30 minutes at 37° C. (phagocytosis) • remove media • wash 1-2× with PBS • add medium with 100 μg/ml Gentamicin, stock: 10 mg/ml (=1:100) • incubate 45′ at 37° C. • wash 2× with PBS • add fresh medium (200 μl/well) • add compounds to test • incubate 2-3 hours at 37° C. • remove medium • lyse cells with water: add 200 μl H2O incubate 10′, push a few times through 27 gauge needle using a 1 ml syringe • plate […] 1:10 dilution onto LB-agar plates (=1:100 dil)
Overnight culture of Salmonella thyphimurium=˜[…]
Overnight culture of Staphylococcus carnosus=˜5×10^9 cfu/ml MOI=50 (=5 μl of 1:10 dil. O/N culture)
MOI=Multiplicity of Infection […]

Experiment [4] concerns Staphylococcus carnosus. The experiment in a line: Inhibition of growth of Staphylococcus carnosus (optical density of culture). The conditions noted are these: after 9-20 h, No compound 0.887.
Experimental: (§1) Activity of substances in the inhibition of growth of bacteria. Bacteria including the species Escherichia coli, Bacillus pumilus, Salmonella sp., Micrococcus luteus and Staphylococcus carnosus are cultured in appropriate media (Luria broth for all except S. canosus). Overnight cultures are mixed with fresh medium to reach an optical density at 600 nM of ca. 0.1 AU. These cultures are mixed with solutions of substances to be tested at concentrations ranging from 100 μM to 0.05 μM in a microtitre plate. The growth of the culture is monitored by measuring the optical density at various times after the addition of the inhibitor. Reduction in the rate of increase in optical density corresponds to an inhibition of bacterial growth.
Experiment [5] deals with Salmonella typhimurium. Briefly: Inhibition of growth of Salmonella typhimurium (optical density of culture). The conditions noted are these: after 9-20 h, No compound 0.943.
Experimental: as §1

In the case of `CC[C@H]1OC(=O)[C@H](C)[C@@H](O[C@H]2C[C@@](C)(OC)[C@@H](O)[C@H](C)O2)[C@H](C)[C@@H](O[C@@H]2O[C@H](C)C[C@H](N(C)C)[C@H]2O)[C@](C)(O)C[C@@H](C)CN(C)[C@H](C)[C@@H](O)[C@]1(C)O` [Azithromycin, reference compound], the “Ability of mice to clear an infection by Staphylococcus aureus Newman; bacteria quantified as CFU recovered from a standard sample of kidney” value (shortened to “Ability of mice to clear an infection”) in experiment [1] was “decreases recovered bacteria in a dose responsive manner”.
For the compound `CC[C@H]1OC(=O)[C@H](C)[C@@H](O[C@H]2C[C@@](C)(OC)[C@@H](O)[C@H](C)O2)[C@H](C)[C@@H](O[C@@H]2O[C@H](C)CC(N(C)C)[C@H]2O[N+](=O)[O-])[C@](C)(O)C[C@@H](C)CN(C)[C@H](C)[C@@H](OC(C)=O)[C@]1(C)O` (stereo partly shown) [Compound E-2], the “Body weight of BALBc mice at day 7 after commencing 2.5% DSS in water” value in experiment [2] (FIG. 17) is listed as “protects against weight loss”. The “Killing of phagocytosed Salmonella typhimurium by murine macrophages” value in experiment [3] is “stimulates the killing of bacterial cells by macrophages”. Further, the “Ability of mice to clear an infection” value in experiment [1] is reported as “decreases recovered bacteria in a dose responsive manner”. In addition, the “Absorbance of culture medium at 600 nm” value is 0.760 in experiment [4] (Conc. 0.8 μM); 0.766 in experiment [4] (Conc. 2 μM); 0815 in experiment [4] (Conc. 3 μM); 0.626 in experiment [4] (Conc. 6 μM); 0.542 in experiment [4] (Conc. 13 μM); 0.456 in experiment [4] (Conc. 25 μM). Besides, the “Absorbance of culture medium at 600 nm” value is 0.425 in experiment [4] (Conc. 50 μM); 0.395 in experiment [4] (Conc. 100 μM); 0.452 in experiment [5] (Conc. 0.8 μM); 0.441 in experiment [5] (Conc. 2 μM); 0.410 in experiment [5] (Conc. 3 μM); 0.382 in experiment [5] (Conc. 6 μM). Also, the “Absorbance of culture medium at 600 nm” value stood at 0.621 in experiment [5] (Conc. 13 μM), 0.314 in experiment [5] (Conc. 25 μM), 0.168 in experiment [5] (Conc. 50 μM) and 0.251 in experiment [5] (Conc. 100 μM).
For the compound `CCCCCCCCCCN(C)C1C[C@@H](C)O[C@@H](O[C@@H]2[C@@H](C)[C@H](O[C@H]3C[C@@](C)(OC)[C@@H](O)[C@H](C)O3)[C@@H](C)C(=O)O[C@H](CC)[C@@](C)(O)[C@H](O)[C@@H](C)N(C)C[C@H](C)C[C@@]2(C)O)[C@@H]1O` (stereo partly shown) [Compound E-3], the “Body weight and clinical score of BALBc mice at day 9 after commencing 2.5% DSS in water” value in experiment [2] is “stimulate inflammation”.
As to `CCC(=O)O[C@@H]1[C@@H](C)N(C)C[C@H](C)C[C@@](C)(O)[C@H](O[C@@H]2O[C@H](C)C[C@H](N(C)C)[C@H]2O[N+](=O)[O-])[C@@H](C)[C@H](O[C@H]2C[C@@](C)(OC)[C@@H](O)[C@H](C)O2)[C@@H](C)C(=O)O[C@H](CC)[C@@]1(C)O` [Compound E-5], in experiment [1] (FIG. 5), the “Response of mice to an infection by Staphylococcus (recovery of weight)” value was “faster recovery of weight due to faster clearance of bacteria”. Moreover, the “Ability of mice to clear an infection” value in experiment [1] was “decreases recovered bacteria in a dose responsive manner”. Further, the “Absorbance of culture medium at 600 nm” value in experiment [4] (Conc. 0.8 μM) is 0.819; in experiment [4] (Conc. 2 μM), 0.726; in experiment [4] (Conc. 3 μM), 0.805; in experiment [4] (Conc. 6 μM) it was 0.525; in experiment [4] (Conc. 13 μM), 0.452; in experiment [4] (Conc. 25 μM), 0.403. Further, the “Absorbance of culture medium at 600 nm” value in experiment [4] (Conc. 50 μM) came to 0.347; in experiment [4] (Conc. 100 μM) it was 0.302; in experiment [5] (Conc. 0.8 μM), 0.574; in experiment [5] (Conc. 2 μM), 0.568; in experiment [5] (Conc. 3 μM) it was 0.511; in experiment [5] (Conc. 6 μM), 0.478. For the same compound, the “Absorbance of culture medium at 600 nm” value turned out to be 0.437 in experiment [5] (Conc. 13 μM), 0.396 in experiment [5] (Conc. 25 μM), 0.395 in experiment [5] (Conc. 50 μM) and 0.390 in experiment [5] (Conc. 100 μM).
As to `CC[C@H]1OC(=O)[C@H](C)[C@@H](O[C@H]2C[C@@](C)(OC)[C@@H](O)[C@H](C)O2)[C@H](C)[C@@H](O[C@@H]2O[C@H](C)CC(N(C)C)[C@H]2OC(C)=O)[C@](C)(O)C[C@@H](C)CN(C)[C@H](C)[C@@H](O[N+](=O)[O-])[C@]1(C)O` (stereo partly shown) [Compound E-9], the “Absorbance of culture medium at 600 nm” value worked out at 0.765 in experiment [4] (Conc. 0.8 μM); 0.737 in experiment [4] (Conc. 2 μM); 0.830 in experiment [4] (Conc. 3 μM); 0.752 in experiment [4] (Conc. 6 μM); 0.677 in experiment [4] (Conc. 13 μM); 0.426 in experiment [4] (Conc. 25 μM). The “Absorbance of culture medium at 600 nm” value in experiment [4] (Conc. 50 μM) came out at 0.522; in experiment [4] (Conc. 100 μM), 0.545; in experiment [5] (Conc. 0.8 μM), 0.300; in experiment [5] (Conc. 2 μM), 0.272; in experiment [5] (Conc. 3 μM), 0.327; in experiment [5] (Conc. 6 μM), 0.348. The “Absorbance of culture medium at 600 nm” value in experiment [5] (Conc. 13 μM) is listed as 0.382; in experiment [5] (Conc. 25 μM), 0.395; in experiment [5] (Conc. 50 μM), 0.319; in experiment [5] (Conc. 100 μM) it was 0.221.
On to `CCC(=O)O[C@@H]1C(N(C)C)C[C@@H](C)O[C@H]1O[C@@H]1[C@@H](C)[C@H](O[C@H]2C[C@@](C)(OC)[C@@H](OC(=O)CC)[C@H](C)O2)[C@@H](C)C(=O)O[C@H](CC)[C@@](C)(O)[C@H](OC(=O)CC)[C@@H](C)N(C)C[C@H](C)C[C@@]1(C)OC(=O)CC` (stereo partly shown) [Compound E-51], for which the “Body weight and clinical score of BALBc mice at day 7 after commencing 2.5% DSS in water” value in experiment [2] (FIG. 19, weight greater than Vehicle) is “protect against inflammation”.
For the compound `CCCC(=O)O[C@@H]1C(N(C)C)C[C@@H](C)O[C@H]1O[C@@H]1[C@@H](C)[C@]2(O)O[C@@]1(C)C[C@@H](C)CN(C)[C@H](C)[C@@H](O)[C@](C)(O)[C@@H](CC)OC(=O)[C@@H]2C` (stereo partly shown) [Compound E-238], in experiment [2], the “Body weight and clinical score of BALBc mice at day 9 after commencing 2.5% DSS in water” value is reported as “stimulate inflammation”.
Still for that read-out and setting: to `CCCC(=O)O[C@@H]1[C@@H](C)N(C)C[C@H](C)C[C@@](C)(O)[C@H](O[C@@H]2O[C@H](C)CC(N(C)C)[C@H]2O)[C@@H](C)[C@H](O[C@H]2C[C@@](C)(OC)[C@@H](OC(=O)CCC)[C@H](C)O2)[C@@H](C)C(=O)O[C@H](CC)[C@@]1(C)O` (stereo partly shown) [Compound E-553] belongs “stimulate inflammation”.
